Assay results: publication PMC8637440, “Structural Modifications Yield Novel Insights Into the Intriguing Pharmacodynamic Potential of Anti-inflammatory Nitro-Fatty Acids” (Frontiers in Pharmacology, 2021)
Where “and” joins values, the source holds several entries; their conditions need not be identical. Equal values may be shown once.

Target: T1, 5-LO (Homo sapiens, UniProt P09917)
T1 construct: endogenous in cells; host or cells: human PMNL from buffy coats
T1 sequence (P09917 1-674): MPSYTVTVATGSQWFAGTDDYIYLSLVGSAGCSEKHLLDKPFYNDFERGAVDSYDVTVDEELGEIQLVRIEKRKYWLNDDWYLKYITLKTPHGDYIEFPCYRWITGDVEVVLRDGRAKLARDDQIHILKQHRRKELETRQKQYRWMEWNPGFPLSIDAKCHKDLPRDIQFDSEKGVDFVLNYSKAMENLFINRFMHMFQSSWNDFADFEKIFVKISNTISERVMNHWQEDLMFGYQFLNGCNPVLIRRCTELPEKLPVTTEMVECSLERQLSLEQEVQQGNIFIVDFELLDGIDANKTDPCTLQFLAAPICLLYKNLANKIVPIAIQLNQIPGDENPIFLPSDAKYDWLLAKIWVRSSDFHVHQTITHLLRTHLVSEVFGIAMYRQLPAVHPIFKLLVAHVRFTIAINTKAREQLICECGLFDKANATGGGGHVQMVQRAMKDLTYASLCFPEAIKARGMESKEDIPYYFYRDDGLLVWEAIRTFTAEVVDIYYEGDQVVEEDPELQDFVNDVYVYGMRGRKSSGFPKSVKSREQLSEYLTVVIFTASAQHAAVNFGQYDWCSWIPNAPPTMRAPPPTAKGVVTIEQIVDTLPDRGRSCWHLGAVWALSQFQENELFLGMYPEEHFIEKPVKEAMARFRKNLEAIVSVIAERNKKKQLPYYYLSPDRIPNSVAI
Assay: 5-LO product formation (LTB4, 5-HETE) in intact PMNL, A23187 + 20 µM AA
Format: cell-based
Settings: PMNL (20 µM AA) 5-HETE IC50, intact PMNL, 15 min preincubation, A23187 2.5 µM + 20 µM AA; n.i. = no inhibition observed
Description: Buffy coats from different donors of different blood types were commercially obtained from DRK Blutspendedienst Baden-Württemberg Institute Frankfurt. Donors have given their written consent. […] Following separation, the supernatant was transferred very gently to new 50-ml tubes containing lymphocyte separation medium (LSM) and centrifuged for 10 min at 800 ×g at RT with the centrifuge brake turned off. Afterwards, the supernatant was decanted carefully to discard the platelets and monocytes. The PMNL were washed with 1× PBS before the residual erythrocytes were lysed in two cycles: the cell pellet was resuspended with 10 ml H2O and vortexed for 45 s, and lysis was stopped with 40 ml 1 × PBS. After 10-min centrifugation at 200 ×g at RT, the cycle was repeated once. The supernatant was aspirated, the cell pellet resuspended in 5 ml PBS/glucose and initially separated PMNL preparations with different blood types were finally pooled to gain a sufficient number of cells. […] The enzyme was diluted in PBS/EDTA/ATP, transferred into 5-ml glass tubes, and stored on ice. […] The reaction was stopped by placing the glass tubes on ice. The supernatants were transferred to 1.5 ml reaction tubes and stored at −80°C before LC-MS (liquid chromatography and mass spectrometry) analysis of LTB4 and HETEs as described in 2.6 at the Institute of Pharmacology, Goethe University, University Hospital, Germany. The lipid mediators LTB4, hydroxyeicosatetraenoic acids, 5(S)-HETE, 12(S)-HETE, 15(S)-HETE and 20-HETE were analyzed using liquid chromatography tandem-mass spectroscopy (LC-MS/MS). The LC-MS/MS system consisted of a 5500 QTrap mass spectrometer (Sciex, Darmstadt, Germany), operating in negative ESI mode, an Agilent 1200 HPLC system (Agilent, Waldbronn, Germany) and an HTC Pal autosampler (Chromtech, Idstein, Germany). Sample extraction of LTB4 and HETEs were performed using liquid-liquid extraction: 200 µl of the sample were gently mixed with 20 µl of methanol and 20 µl of internal standard solution and extracted twice with 600 µl ethyl acetate. […] Working solutions of all analytes were prepared in methanol containing 0.1% BHT. The calibration standards were prepared by further dilution of the working standards. […] The residues were reconstituted in 50 µl of methanol:water:BHT (50:50:10^−4, v/v/v) prior to injection into the LC-MS/MS system. Chromatographic separation was achieved using a Gemini NX C18 column (150 mm × 2 mm ID, 5 µm, Phenomenex, Aschaffenburg, Germany) with a precolumn of the same material. A linear gradient was employed at a flow rate of 0.5 ml/min and a total run time of 17.5 min. Mobile phases were A water:ammonia (100:0.05, v/v) and B acetonitrile:ammonia (100:0.05, v/v). […] All data were acquired using Analyst software v1.6.2 and quantitation was performed by MultiQuant software v3.0 (both Sciex, Darmstadt, Germany) using the internal standard method (isotope-dilution mass spectrometry). Calibration curves were calculated by linear regression with 1/x.

SMILES	IC50
CCCCCCC=C(CCCCCCCC(=O)O)[N+](=O)[O-] [16.9.9, 9-nitro-hexadec-9-enoic acid]	10.8 ± 1.1 µM
CCCCCCCCCCCCCC=C(CCC(=O)O)[N+](=O)[O-] [18.4.4, 4-nitro-octadec-4-enoic acid]	9.2 ± 1.2 µM
CCCCCCCCCCCCC=C(CCCC(=O)O)[N+](=O)[O-] [18.5.5, 5-nitro-octadec-5-enoic acid]	7.5 ± 1.1 µM
CCCCCCCCCCCC=C(CCCCC(=O)O)[N+](=O)[O-] [18.6.6, 6-nitro-octadec-6-enoic acid]	9.1 ± 1.2 µM
CCCCCCCCCCCC(=CCCCCC(=O)O)[N+](=O)[O-] [18.6.7, 7-nitro-octadec-6-enoic acid]	11.2 ± 1.2 µM
CCCCCCCCCCC=C(CCCCCC(=O)O)[N+](=O)[O-] [18.7.7, 7-nitro-octadec-7-enoic acid]	4.9 ± 1.1 µM
CCCCCCCCCC=C(CCCCCCC(=O)O)[N+](=O)[O-] [18.8.8, 8-nitro-octadec-8-enoic acid]	6.6 ± 1.1 µM
CCCCCCCCCC(=CCCCCCCC(=O)O)[N+](=O)[O-] [18.8.9, 9-nitro-octadec-8-enoic acid]	7.7 ± 1.2 µM
CCCCCCCCC=C(CCCCCCCC(=O)O)[N+](=O)[O-] [18.9.9, 9-nitro-octadec-9-enoic acid]	5.9 µM and 6.1 µM
CCCCCCCCC(=CCCCCCCCC(=O)O)[N+](=O)[O-] [18.9.10, 10-nitro-octadec-9-enoic acid]	6.9 ± 1.1 µM
CCCCCCCC=C(CCCCCCCCC(=O)O)[N+](=O)[O-] [18.10.10, 10-nitro-octadec-10-enoic acid]	6 ± 1.2 µM
CCCCCCC=C(CCCCCCCCCC(=O)O)[N+](=O)[O-] [18.11.11, 11-nitro-octadec-11-enoic acid]	5.7 ± 1.1 µM
CCCCCCCCCCC=C(CCCCCCCC(=O)O)[N+](=O)[O-] [20.9.9, 9-nitro-eicos-9-enoic acid]	4.7 ± 1.1 µM

Same assay, conditions: PMNL (20 µM AA) LTB4 IC50, intact PMNL, 15 min preincubation, A23187 2.5 µM + 20 µM AA; n.i. = no inhibition observed

SMILES	IC50 [µM]
CCCCCCC=C(CCCCCCCC(=O)O)[N+](=O)[O-] [16.9.9, 9-nitro-hexadec-9-enoic acid]	12 ± 1.1
CCCCCCCCCCCCCC=C(CCC(=O)O)[N+](=O)[O-] [18.4.4, 4-nitro-octadec-4-enoic acid]	10.6 ± 1.1
CCCCCCCCCCCCC=C(CCCC(=O)O)[N+](=O)[O-] [18.5.5, 5-nitro-octadec-5-enoic acid]	9 ± 1.1
CCCCCCCCCCCC=C(CCCCC(=O)O)[N+](=O)[O-] [18.6.6, 6-nitro-octadec-6-enoic acid]	7.7 ± 1.1
CCCCCCCCCCCC(=CCCCCC(=O)O)[N+](=O)[O-] [18.6.7, 7-nitro-octadec-6-enoic acid]	8.3 ± 1.1
CCCCCCCCCCC=C(CCCCCC(=O)O)[N+](=O)[O-] [18.7.7, 7-nitro-octadec-7-enoic acid]	4.3 ± 1.1
CCCCCCCCCC=C(CCCCCCC(=O)O)[N+](=O)[O-] [18.8.8, 8-nitro-octadec-8-enoic acid]	7.9 ± 1.1
CCCCCCCCCC(=CCCCCCCC(=O)O)[N+](=O)[O-] [18.8.9, 9-nitro-octadec-8-enoic acid]	5.7 ± 1.2
CCCCCCCCC=C(CCCCCCCC(=O)O)[N+](=O)[O-] [18.9.9, 9-nitro-octadec-9-enoic acid]	4.8 ± 1.8
CCCCCCCCC(=CCCCCCCCC(=O)O)[N+](=O)[O-] [18.9.10, 10-nitro-octadec-9-enoic acid]	5 ± 1.1
CCCCCCCC=C(CCCCCCCCC(=O)O)[N+](=O)[O-] [18.10.10, 10-nitro-octadec-10-enoic acid]	7 ± 1.1
CCCCCCC=C(CCCCCCCCCC(=O)O)[N+](=O)[O-] [18.11.11, 11-nitro-octadec-11-enoic acid]	5.9 ± 1.1
CCCCCCCCCCC=C(CCCCCCCC(=O)O)[N+](=O)[O-] [20.9.9, 9-nitro-eicos-9-enoic acid]	4.2 ± 1.1

Same assay, conditions: intact PMNL, 15 min preincubation, A23187 2.5 µM + 20 µM AA; n.i. = no inhibition observed

SMILES	PMNL (20 µM AA) 5-HETE IC50	PMNL (20 µM AA) LTB4 IC50
CCC=C(CCCCCCCC(=O)O)[N+](=O)[O-] [12.9.9, 9-nitro-dodec-9-enoic acid]	n.i.	n.i.
CCCCC=C(CCCCCCCC(=O)O)[N+](=O)[O-] [14.9.9, 9-nitro-tetradec-9-enoic acid]	n.i.	n.i.
CCCCCCCC/C=C\CCCCCCCC(=O)O [OA, oleic acid, reference compound]	n.i.	n.i.

Tested on: HT-29 cells
Assay: WST-1 cell viability assay, HT-29
Format: cell-based, human
Settings: Homo sapiens, HT-29, 48 h, n.i. = no inhibition observed
Description: Cell viability was analyzed with the WST-1 assay based on the cleavage of the stable tetrazolium salt WST-1 by the mitochondrial reductase system. Cells were seeded in the appropriate densities in a clear 96-well plate and settled overnight at 37°C in 5% CO2. The next day, the cells were treated with NFA or the substances of interest (≤0.1% dimethyl sulfoxide [DMSO]) and incubated for 24 or 48 h at 37°C in 5% CO2. Cell viability was analyzed by adding 10 µl WST-1 solution (Roche, Basel, Switzerland) and subsequently incubating the cells at 37°C for another 30–40 min. Absorbance was measured at 450 nm with a control wavelength at 620 nm using a plate reader.
Besides targeting the NF-κB pathway, the anti-tumorigenic effects of NFA can be observed by a reduction of colorectal cancer cell viability. […] Again, the cytotoxic effects of NFA were determined in HCT-116 and HT-29 colorectal cancer cells in the present study. […] HCT-116 cells were treated with increasing concentrations of NFA differing in chain length and Michael acceptor position for 24 h, and cell viability was determined using the WST-1 assay. Due to their prolonged cell division rate and their lack of sensitivity towards NFA ([Kühn et al., 2018]), HT-29 cells were treated for 48 h to gain improved NFA activity.

SMILES	IC50 [µM]
CCC=C(CCCCCCCC(=O)O)[N+](=O)[O-] [12.9.9, 9-nitro-dodec-9-enoic acid]	~31.5
CCCCC=C(CCCCCCCC(=O)O)[N+](=O)[O-] [14.9.9, 9-nitro-tetradec-9-enoic acid]	27.4 ± 1
CCCCCCC=C(CCCCCCCC(=O)O)[N+](=O)[O-] [16.9.9, 9-nitro-hexadec-9-enoic acid]	12.7 ± 1.1
CCCCCCCCCCCCCC=C(CCC(=O)O)[N+](=O)[O-] [18.4.4, 4-nitro-octadec-4-enoic acid]	23.9 ± 1.1
CCCCCCCCCCCCC=C(CCCC(=O)O)[N+](=O)[O-] [18.5.5, 5-nitro-octadec-5-enoic acid]	18.5 ± 1.1
CCCCCCCCCCCC=C(CCCCC(=O)O)[N+](=O)[O-] [18.6.6, 6-nitro-octadec-6-enoic acid]	11.1 ± 1.1
CCCCCCCCCCCC(=CCCCCC(=O)O)[N+](=O)[O-] [18.6.7, 7-nitro-octadec-6-enoic acid]	13.8 ± 1.1
CCCCCCCCCCC=C(CCCCCC(=O)O)[N+](=O)[O-] [18.7.7, 7-nitro-octadec-7-enoic acid]	4.4 ± 1.1
CCCCCCCCCC=C(CCCCCCC(=O)O)[N+](=O)[O-] [18.8.8, 8-nitro-octadec-8-enoic acid]	3.3 ± 1.1
CCCCCCCCCC(=CCCCCCCC(=O)O)[N+](=O)[O-] [18.8.9, 9-nitro-octadec-8-enoic acid]	8 ± 1.1
CCCCCCCCC=C(CCCCCCCC(=O)O)[N+](=O)[O-] [18.9.9, 9-nitro-octadec-9-enoic acid]	8.8 ± 1.1
CCCCCCCCC(=CCCCCCCCC(=O)O)[N+](=O)[O-] [18.9.10, 10-nitro-octadec-9-enoic acid]	15.7 ± 1.1
CCCCCCCC=C(CCCCCCCCC(=O)O)[N+](=O)[O-] [18.10.10, 10-nitro-octadec-10-enoic acid]	13.9 ± 1.1
CCCCCCC=C(CCCCCCCCCC(=O)O)[N+](=O)[O-] [18.11.11, 11-nitro-octadec-11-enoic acid]	16.6 ± 1.1
CCCCCCCCCCC=C(CCCCCCCC(=O)O)[N+](=O)[O-] [20.9.9, 9-nitro-eicos-9-enoic acid]	8.1 ± 1.1

Same assay, conditions: n.i. = no inhibition observed

SMILES	HT-29 (48 h) IC50
CCCCCCCC/C=C\CCCCCCCC(=O)O [OA, oleic acid, reference compound]	failed to induce cytotoxic effects and n.i.
